# Assay results as given in patent publication US12465579B2, “Compositions and methods for treating homocystinuria and other conditions” (THE REGENTS OF THE UNIVERSITY OF COLORADO, A BODY CORPORATE, priority 2019, dated 2025).
# Experiments:
# A394V mice = experiment: Plasma Hcy in NKH knock-in mouse model (GLDC mutation A394V) challenged with glycine
# Method: In another exemplary experiment, NKH as represented in the experimental mouse model, A394V mice was tested for levels of Hcy in the NKH mouse model when exposed to various agents.
# In this experiment, a knock-in mouse model with the clinically observed human GLDC mutation A394V engineered into the mouse gene was used. This mutation retains a small amount of residual enzyme that is sufficient to create a viable model.
# Data shown has an N=5 animals per group and is representative of 2 independent experiments.
# Cbs null mouse [1] = experiment: Hcy lowering, survival and liver injury in Cbs null mouse model; assay type: in vivo; conditions: Cbs null mice with severe liver damage
# Description: In one exemplary method, an acceptable mouse mode of HCU is used to study various effects of exemplary compositions disclosed herein on aberrant Hcy levels. To date, the majority of research on HCU has been performed using a CBS knockout mouse model. These Cbs (−/−) animals suffer from pronounced liver injury and typically die within 2-3 weeks of birth.
# In an alternative experiment, agents were used to verify involvement of BHMT in the homocystinuria treatment process. In these exemplary methods, a Cbs null mouse was used where severe liver damage to the mouse model interferes with standard HCU treatments to reduce Hcy.
# HO HCU mice [2] = experiment: Plasma Hcy, cysteine and metabolite levels in HO HCU mice treated via drinking water; assay type: in vivo, mouse; conditions: for further lowering of Hcy due to betaine in the presence of the amino acid: about 3.0% w/v amino acid combined with about 3.0% w/v betaine in drinking water, one week; for plasma Hcy / plasma cysteine levels: HO mice, about 3.0% (w/v) in drinking water ad libitum for one week, normal methionine diet
# Method: It is noted that WT mice (n=6) were untreated controls. HO HCU mice (N=8, 4 of each sex in each group) were either untreated or treated with about 3.0% (w/v) glycine w/v or about 3.0% (w/v) serine given in drinking water supplied ad libitum for one week.
# In accordance with these methods, HO HCU mice (N=8, 4 of each sex in each group) were treated with either about 3.0% glycine w/v or about 3.0% w/v serine given in drinking water supplied ad libitum for one week in the presence and absence of about 3.0% w/v betaine. Plasma samples were taken from the mice at various times and Hcy levels were determined.
# Plasma Hcy levels were determined from HO HCU mice (n=8 per group) in the presence and absence of either about 5.0% w/v sodium formate alone or in combination with about 3.0% betaine given in drinking water given ad libitum. […]
# DMGDH = experiment: Western blot analysis of hepatic DMGDH protein levels in HO HCU mice; assay type: in vivo, mouse
# Method: In other exemplary experiments, it is noted that methotrexate (MTX) treatment represses hepatic DMGDH protein levels even further in experimental HO HCU mice which supports the hypothesis that expression of this enzyme is sensitive to THF levels. In accordance with these methods, Western blot analysis of hepatic DMGDH protein levels in HO HCU mice in the presence and absence of methotrexate levels were assessed.
# As illustrated herein, FIGS. 10A-10B represents a Western blot comparing the level of DMGDH and GAPDH (control) for untreated (HO) and treated (HO+MTX, methotrexate) mice (HO) using the HCU mouse model (10A); and further illustrated in a histogram plot (10B), level of intensity of DMDGH for untreated (HO) and treated (HO+MTX, methotrexate) mice (HO) using the HCU mouse model. This figure represents an N=9 per group and this figure is a representative of three independent experiments. P<0.05.
# In another exemplary method, experiments were performed to measure levels of a critical enzyme in treated and untreated mouse models (HO).
# As found in FIGS. 15A-15B, a Western blot comparing the level of DMGDH and GAPDH (control) for untreated (HO), treated (e.g. formate agent) and treated with standard treatment combinations (e.g. formate and trimethylglycine (e.g. betaine)) using the HCU mouse model (15A); and further illustrating in a histogram plot (15B), level of intensity of DMDGH for untreated (HO), treated (e.g. formate agent) and treated with standard treatment combinations (e.g. formate and trimethylglycine (e.g. betaine)) using the HCU mouse model in certain embodiments disclosed herein. Western blotting analysis of hepatic DMGDH protein levels in HO HCU mice in the presence and absence of either about 5.0% sodium formate alone or in combination with about 3.0% betaine given ad libitum in drinking water for about one week. N=9 per group. This figure is representative of three independent experiments.
# [3] = tested on: mouse model of MTR deficient homocystinuria; experiment: Betaine supplementation in mouse model of MTR deficient homocystinuria; assay type: in vivo
# Description: In the following exemplary experiments, it was observed that betaine supplementation was limited as observed in a mouse model of MTR deficient homocystinuria. As noted in FIG. 1, Homocystinuria can occur due to defects in the Hcy remethylation enzymes MTR or MTHFR. It was observed that supplementation of betaine in certain experiments with a mouse model of MTR deficient homocystinuria lead to reduction of tHcy of approximately 25% having little effect on the condition. This modest decrease in betaine mediated treatment of MTR deficient homocystinuria has also been observed in human patients with this form of homocystinuria.
# HO HCU mice [4] = experiment: Long-term betaine treatment of HO HCU mice without methionine-restriction; assay type: in vivo, mouse
# Cbs null mouse [5] = conditions: betaine treatment; cited from earlier work
# hepatic 5-methyl-THF = experiment: Hepatic metabolomic analysis of 5-MeTHF in HO mice; assay type: in vivo, mouse; conditions: betaine 3% w/v in drinking water ad libitum
# Description: As illustrated in one example, see FIG. 2, HCU (HO) induces a significant accumulation of hepatic 5-methyl-THF which by sequestering one carbon units has the potential to decrease the available pool of THF available to the betaine pathway for lowering Hcy. FIG. 2 illustrates an example of hepatic metabolomic analysis of HO and WT controls compared to an HO mouse treated with betaine. Comparative hepatic metabolomic analysis of HO mice and WT controls illustrate about a 10-fold accumulation in the MTHFR product 5-MeTHF. Betaine treatment alone reduced 5-MeTHF by about 15-25%. Data illustrated in FIG. 2 is derived from the livers of 8 (4 male, 4 female) individual HO or WT or HO Betaine mice per group. Betaine was given at 3% w/v in drinking water given ad libitum. P<0.0001 vs WT.
# DHFR = experiment: Western blotting analysis of hepatic DHFR protein levels in HO HCU mice; assay type: in vivo, mouse; conditions: betaine treated, not restored to control levels
# Method: In other exemplary experiments, levels of DHFR were assessed using the HO mouse model in untreated and betaine treated mice. […] In addition, intensity levels of DHFR were measured and further illustrated in a histogram plot. As illustrated, level of intensity of DHFR for wild type (WT), treated (HO+betaine) and untreated mice (HO) using the HCU mouse model was examined. It is noted that the level of DHFR in betaine treated mice was not restored to control levels and only about a 5-10% improvement was observed (4B). (See FIGS. 4A-4B). As noted herein, Western blotting analysis of hepatic DHFR protein levels in WT and HO HCU mice. N=9 per group.
# BHMT = BHMT protein level in liver during long-term betaine treatment; assay type: in vivo
# Description: By this observation, it raised the possibility that the BHMT protein is impaired in its function. […] In this context, further induction of BHMT expression observed in a long-term betaine treatment group could constitute a not entirely successful compensatory mechanism designed to mitigate the effects of diminished BHMT activity.
# In other embodiments disclosed herein, it was observed that BHMT is unusual in that it constitutes approximately 2% of total protein in the liver. During long-term betaine treatment this concentration rises to up to four to five fold (about 8-10%) of total hepatic protein which is an enormous amount of protein that would require zinc for its function. The increased requirement for zinc cannot be supplied because zinc cannot be stored in mammals and must be supplemented by diet or other source. Unfortunately, dietary sources of zinc are typically very high in protein and therefore precluded by the low methionine diet required of HCU patients. Therefore, long term betaine treatment in HCU could induce a significant zinc deficiency in a subject, impairing BHMT protein function and concomitantly reducing the betaine response.
# BHMT is unusual in that it constitutes approximately 2% of total protein in the liver. […]
# [6] = betaine treatment of the HO model
structure (smiles),measurement,setting,value
NCC(=O)O [glycine],plasma Hcy on glycine challenge,"A394V mice; mouse, in vivo",massive increase
same,lowering of Hcy in the Cbs null mouse model,Cbs null mouse [1],unable to lower Hcy
same,further lowering of Hcy due to betaine in the presence of the amino acid,HO HCU mice [2]; HO HCU mice,reduced and/or completely prevented
same,plasma Hcy,HO HCU mice [2],significantly lowered
same,plasma cysteine levels,HO HCU mice [2],increased
N[C@@H](CO)C(=O)O [serine],lowering of Hcy in the Cbs null mouse model,Cbs null mouse [1],unable to lower Hcy
same,further lowering of Hcy due to betaine in the presence of the amino acid,HO HCU mice [2]; HO HCU mice,reduced and/or completely prevented
same,plasma Hcy,HO HCU mice [2],significantly lowered
same,plasma cysteine levels,HO HCU mice [2],increased
N[C@@H](Cc1c[nH]c2ccccc12)C(=O)O [tryptophan],further lowering of Hcy due to betaine in the presence of the amino acid,HO HCU mice [2]; HO HCU mice,also observed
CN(Cc1cnc2nc(N)nc(N)c2n1)c1ccc(C(=O)N[C@@H](CCC(=O)O)C(=O)O)cc1 [methotrexate],hepatic DMGDH protein levels,DMGDH; methotrexate treatment,represses
O=C[O-].[Na+] [sodium formate],glycine induced increase in Hcy,"A394V mice; A394V NKH mice, concomitant formate about 5.0% w/v in drinking water with about 5.0% w/v glycine",significantly reduced
same,hepatic DMGDH expression levels,"DMGDH; about 5.0% sodium formate alone in drinking water, about one week",restore normal expression levels
same,"response level for restoring DMGDH, formate agent combined with betaine","DMGDH; about 5.0% sodium formate with about 3.0% betaine in drinking water, about one week",surprisingly synergistic
same,lowering of Hcy in the Cbs null mouse model,Cbs null mouse [1],unable to lower Hcy
same,plasma Hcy levels,"HO HCU mice [2]; HO HCU mice, about 5.0% w/v sodium formate alone in drinking water, normal methionine/protein diet",significantly lowered
same,"Hcy levels, formate combined with the standard treatment (betaine)","HO HCU mice [2]; HO HCU mice, about 5.0% w/v sodium formate with about 3.0% betaine in drinking water, normal protein diet",near normal levels
"CNCC(=O)O [sarcosine, sarcosine (methylglycine)]",further lowering of Hcy due to betaine in the presence of the amino acid,HO HCU mice [2]; HO HCU mice,also observed
"C[N+](C)(C)CC(=O)O [betaine, N,N,N-trimethylglycine]",reduction of tHcy,[3],approximately 25%
same,ability of betaine treatment to lower homocysteine,"HO HCU mice [4]; long-term betaine treatment, no methionine-restriction",diminished significantly over time
same,coagulation phenotype,HO HCU mice [4]; prolonged betaine treatment,reversion to a hypercoagulative phenotype
same,plasma levels of TNF-α and IL-Ip,HO HCU mice [4]; prolonged betaine treatment,significant increase
same,fertility of female Cbs (-/-) mice,Cbs null mouse [5],restored fertility
same,lowering of Hcy in Cbs (-/-) mice,Cbs null mouse [5],without significantly lowering Hcy
same,"severe liver injury, steatosis, and fibrosis in surviving Cbs (-/-) mice",Cbs null mouse [5],not significantly improved
same,survival of Cbs (-/-) mice,Cbs null mouse [5],improved survival
same,reduction of hepatic 5-MeTHF,hepatic 5-methyl-THF,15-25%
same,improvement of hepatic DHFR level,DHFR,5-10%
same,reduction of Hcy levels by standard treatment alone,"HO HCU mice [2]; HO mouse model, betaine alone, as previously observed",15-25%
same,AdoHcy levels,HO HCU mice [2]; [6],fivefold decrease
same,decrease in plasma AdoMet,HO HCU mice [2]; [6],40%
same,plasma DMG,HO HCU mice [2]; [6],increase
same,plasma MG,HO HCU mice [2]; [6],increase
same,plasma cysteine,HO HCU mice [2]; [6],increase
same,plasma methionine,HO HCU mice [2]; [6],increase
same,levels of BHMT protein,BHMT,significantly higher levels
same,BHMT as share of total hepatic protein,BHMT; approximately 2% normally,8-10%
N[C@@H](Cc1c[nH]cn1)C(=O)O [histidine],further lowering of Hcy due to betaine in the presence of the amino acid,HO HCU mice [2]; HO HCU mice,also observed
O=S(=O)([O-])[O-].[Zn+2] [Zinc sulfate],average decrease in plasma homocysteine,"HO HCU mice [2]; 8 HO HCU mice, 0.05% w/v Zinc sulfate in drinking water ad libitum for one week",25%
same,"decrease in betaine efficacy during long term betaine treatment, zinc combined with betaine","HO HCU mice [2]; HO HCU mice, zinc supplementation with betaine, data not shown",prevented
